# Reference: US12559487B2, “Crosslinked optically active secondary amine derivative” (Sumitomo Pharma Co., Ltd., priority 2019, dated 2026)
# Where two headings read alike, the source gives them in different places.
# Tests used:
# MV4; 11 cells = assay: Test 1: Test for evaluating the inhibition of cell proliferation; type: cell-based; conditions: for IC50: cultured for 7 days, PrestoBlue cell viability
# Method: MV4; 11 cells were obtained from American Type Culture Collection (ATCC). The cells were cultured at 37° C. in the presence of 5% CO2 in RPMI 1640 medium containing 10% fetal bovine serum and 1% penicillin/streptomycin.
# The cells were plated to a 96-well plate in 2000 cells/well, each test compound was added thereto to adjust the final concentration of DMSO to 0.1% of DMSO, and the cells were cultured for 7 days. After the cultivation, the cell viability was calculated with PrestoBlue™ Cell Viability Reagent (Invitrogen, A13261).
# [1] = target: T1, hERG (human Ether-a-go-go Related Gene) (Homo sapiens (Human), UniProt Q12809)
# T1 sequence (Q12809 whole entry): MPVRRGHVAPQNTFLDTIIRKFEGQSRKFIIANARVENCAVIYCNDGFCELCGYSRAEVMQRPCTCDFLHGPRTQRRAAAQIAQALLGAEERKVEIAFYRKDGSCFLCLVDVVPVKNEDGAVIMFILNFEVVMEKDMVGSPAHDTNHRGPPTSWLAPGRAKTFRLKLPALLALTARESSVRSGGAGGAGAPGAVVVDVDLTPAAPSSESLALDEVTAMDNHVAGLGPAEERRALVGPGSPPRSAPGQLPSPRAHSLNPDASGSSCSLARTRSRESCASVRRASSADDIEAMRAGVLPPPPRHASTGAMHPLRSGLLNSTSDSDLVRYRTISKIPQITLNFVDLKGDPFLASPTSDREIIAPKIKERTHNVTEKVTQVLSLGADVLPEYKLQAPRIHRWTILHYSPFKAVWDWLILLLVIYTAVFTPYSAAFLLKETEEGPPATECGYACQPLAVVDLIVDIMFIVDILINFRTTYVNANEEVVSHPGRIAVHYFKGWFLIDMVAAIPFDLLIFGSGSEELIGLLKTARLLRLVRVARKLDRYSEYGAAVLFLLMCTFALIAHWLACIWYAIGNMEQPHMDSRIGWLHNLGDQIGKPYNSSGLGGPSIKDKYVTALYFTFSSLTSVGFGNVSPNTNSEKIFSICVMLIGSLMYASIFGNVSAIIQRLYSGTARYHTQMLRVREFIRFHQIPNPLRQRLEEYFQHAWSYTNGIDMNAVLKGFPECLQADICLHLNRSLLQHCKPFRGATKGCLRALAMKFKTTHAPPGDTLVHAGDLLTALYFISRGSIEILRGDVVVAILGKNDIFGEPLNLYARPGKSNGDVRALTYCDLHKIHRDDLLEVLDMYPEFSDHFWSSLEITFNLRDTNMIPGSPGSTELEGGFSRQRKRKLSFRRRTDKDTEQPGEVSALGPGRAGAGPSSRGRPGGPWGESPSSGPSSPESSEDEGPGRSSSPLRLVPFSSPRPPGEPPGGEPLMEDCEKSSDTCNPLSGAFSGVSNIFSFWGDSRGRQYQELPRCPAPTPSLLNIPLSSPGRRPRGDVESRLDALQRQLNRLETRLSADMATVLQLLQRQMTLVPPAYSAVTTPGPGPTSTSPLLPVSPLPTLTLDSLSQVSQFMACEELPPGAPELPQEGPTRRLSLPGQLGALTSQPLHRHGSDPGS
# [2] = target: T1, hERG (human Ether-a-go-go Related Gene); assay: Test 2: Test for the hERG inhibition (QPatch HT, CHO cell strain stably expressing hERG); conditions: for hERG/MV4; 11: hERG IC50 divided by MV4, 11 proliferation IC50; for gap between concentration inhibiting 50% of MV4; 11 proliferation and concentration inhibiting 50% of hERG current: hERG IC50 vs MV4, 11 IC50; for IC50: CHO cells stably expressing hERG, QPatch HT
# [3] = read-out: hERG IC50, hERG current
Molecule,IC50 (MV4; 11 cells),hERG/MV4; 11 [1],further results
"2-(3-{1-[(1S,3S,4R,6S)-6-(cyclopropylmethyl)-2-azabicyclo[2.2.2]octane-3-carbonyl]piperidin-4-yl}-1H-pyrrolo[2,3-c]pyridin-1-yl)-5-fluoro-N,N-di(propan-2-yl)benzamide [Example 6]",< 3 nM,,
"2-(3-{1-[(3S)-2-azabicyclo[2.2.2]octane-3-carbonyl]-1,2,3,6-tetrahydropyridin-4-yl}-1H-pyrrolo[2,3-c]pyridin-1-yl)-5-fluoro-N,N-di(propan-2-yl)benzamide [Example 3]",36 nM,489,
"2-(3-{1-[(3S)-2-azabicyclo[2.2.2]octane-3-carbonyl]-1,2,3,6-tetrahydropyridin-4-yl}-1H-pyrrolo[2,3-c]pyridin-1-yl)-5-fluoro-N-methyl-N-(propan-2-yl)benzamide [Example 2]",530 nM,,"hERG/MV4; 11 [2]: 102; gap between concentration inhibiting 50% of MV4; 11 proliferation and concentration inhibiting 50% of hERG current [2]: more than 100 fold; IC50 [2, 3]: 54000 nM"
"2-(3-{1-[(3S)-2-azabicyclo[2.2.2]octane-3-carbonyl]azepan-4-yl}-1H-pyrrolo[2,3-c]pyridin-1-yl)-5-fluoro-N-methyl-N-(propan-2-yl)benzamide [Example 11]",< 30 nM,>1287,
"2-(3-{1-[(3S)-2-azabicyclo[2.2.2]octane-3-carbonyl]piperidin-3-yl}-1H-pyrrolo[2,3-c]pyridin-1-yl)-5-fluoro-N-methyl-N-(propan-2-yl)benzamide [Example 9]",1700 nM,22,
"2-(3-{1-[(3S)-2-azabicyclo[2.2.2]octane-3-carbonyl]piperidin-4-yl}-1H-pyrrolo[2,3-c]pyridin-1-yl)-5-fluoro-N-methyl-N-(propan-2-yl)benzamide [Example 4]",73 nM,,"cell proliferation inhibition activity (MV4; 11 cells; summary in words): potent cell proliferation inhibition activity; hERG/MV4; 11 [2]: >1370; gap between concentration inhibiting 50% of MV4; 11 proliferation and concentration inhibiting 50% of hERG current [2]: more than 100 fold; IC50 [2, 3]: > 100000 nM; gap between concentration inhibiting 50% of RS4; 11 proliferation and concentration inhibiting 50% of hERG current ([2]; text prints RS4, 11 cells (table is MV4; 11)): more than 1000 fold"
"2-(3-{1-[(3S)-2-azabicyclo[2.2.2]octane-3-carbonyl]pyrrolidin-3-yl}-1H-pyrrolo[2,3-c]pyridin-1-yl)-5-fluoro-N,N-di(propan-2-yl)benzamide [Example 8]",24 nM,404,
"2-(3-{1-[(3S)-2-azabicyclo[2.2.2]octane-3-carbonyl]pyrrolidin-3-yl}-1H-pyrrolo[2,3-c]pyridin-1-yl)-5-fluoro-N-methyl-N-(propan-2-yl)benzamide [Example 7]",52 nM,775,
"2-(3-{2-[(1R,3S,4S)-2-azabicyclo[2.2.1]heptane-3-carbonyl]-2-azaspiro[3.4]octan-6-yl}-1H-pyrrolo[2,3-c]pyridin-1-yl)-5-fluoro-N-methyl-N-(propan-2-yl)benzamide [Example 24]",58 nM,,
"2-(3-{8-[(3S)-2-azabicyclo[2.2.2]octane-3-carbonyl]-8-azabicyclo[3.2.1]octan-3-yl}-1H-pyrrolo[2,3-c]pyridin-1-yl)-5-fluoro-N-methyl-N-(propan-2-yl)benzamide [Example 20]",85 nM,373,
"2-[3-({1-[(3S)-2-azabicyclo[2.2.2]octane-3-carbonyl]azetidin-3-yl}methyl)-1H-pyrrolo[2,3-c]pyridin-1-yl]-5-fluoro-N-methyl-N-(propan-2-yl)benzamide [Example 26]",1700 nM,>59,
"2-[3-({1-[(3S)-2-azabicyclo[2.2.2]octane-3-carbonyl]piperidin-4-yl}methyl)-1H-pyrrolo[2,3-c]pyridin-1-yl]-5-fluoro-N-methyl-N-(propan-2-yl)benzamide [Example 27]",780 nM,>128,
"2-[3-({1-[(3S)-2-azabicyclo[2.2.2]octane-3-carbonyl]pyrrolidin-3-yl}methyl)-1H-pyrrolo[2,3-c]pyridin-1-yl]-5-fluoro-N-methyl-N-(propan-2-yl)benzamide [Example 25]",29 nM,334,
"2-[3-({4-[(3S)-2-azabicyclo[2.2.2]octane-3-carbonyl]-1,4-diazepan-1-yl}methyl)-1H-pyrrolo[2,3-c]pyridin-1-yl]-5-fluoro-N-methyl-N-(propan-2-yl)benzamide [Example 29]",2900 nM,>34,
"2-[3-({4-[(3S)-2-azabicyclo[2.2.2]octane-3-carbonyl]piperazin-1-yl}methyl)-1H-pyrrolo[2,3-c]pyridin-1-yl]-5-fluoro-N-methyl-N-(propan-2-yl)benzamide [Example 28]",3200 nM,>31,
"5-fluoro-2-(3-{1-[(1S,3S,4R)-5-methylidene-2-azabicyclo[2.2.2]octane-3-carbonyl]piperidin-4-yl}-1H-pyrrolo[2,3-c]pyridin-1-yl)-N,N-di(propan-2-yl)benzamide [Example 5]",35 nM,589,
"5-fluoro-2-(3-{1-[(1S,3S,4S,5S)-5-fluoro-2-azabicyclo[2.2.2]octane-3-carbonyl]azepan-4-yl}-1H-pyrrolo[2,3-c]pyridin-1-yl)-N-methyl-N-(propan-2-yl)benzamide [Example 12]",< 30 nM,>1050,
"5-fluoro-2-(3-{8-[(1S,3S,4R)-5-methylidene-2-azabicyclo[2.2.2]octane-3-carbonyl]-8-azabicyclo[3.2.1]octan-3-yl}-1H-pyrrolo[2,3-c]pyridin-1-yl)-N,N-di(propan-2-yl)benzamide [Example 23]",280 nM,,
"5-fluoro-N-methyl-2-(3-{8-[(1S,3S,4R)-5-methylidene-2-azabicyclo[2.2.2]octane-3-carbonyl]-8-azabicyclo[3.2.1]octan-3-yl}-1H-pyrrolo[2,3-c]pyridin-1-yl)-N-(propan-2-yl)benzamide [Example 21]",430 nM,,
"CC(C)N(C)C(=O)c1cc(F)ccc1-n1cc(C2CCCN(C(=O)[C@H]3N[C@@H]4CC[C@H]3C4)CC2)c2ccncc21 (mixture of isomers) [Example 10, 2-(3-{1-[(1R,3S,4S)-2-azabicyclo[2.2.1]heptane-3-carbonyl]azepan-4-yl}-1H-pyrrolo[2,3-c]pyridin-1-yl)-5-fluoro-N-methyl-N-(propan-2-yl)benzamide]",,,"IC50 (MV4; 11 cells; Homo sapiens, MV4-11, 168 h): 89 nM; IC50 ([2]; hERG IC50, hERG current): 55000 nM"
"CC(C)N(C(=O)c1cc(F)ccc1-n1cc(C2=CC3CCC(C2)N3C(=O)[C@H]2NC3CCC2CC3)c2ccncc21)C(C)C (single isomer, unassigned) [Example 19a]",< 30 nM,,"IC50 ([2]; hERG IC50, hERG current): 6000 nM; hERG/MV4; 11 [2]: >200"
"CC(C)N(C(=O)c1cc(F)ccc1-n1cc(C2=CC3CCC(C2)N3C(=O)[C@H]2NC3CCC2CC3)c2ccncc21)C(C)C (single isomer, unassigned) [Example 19b]",140 nM,,"IC50 ([2]; hERG IC50, hERG current): 4500 nM; hERG/MV4; 11 [2]: 32"
"CC(C)N(C(=O)c1cc(F)ccc1-n1cc(C2CCN(C(=O)[C@H]3NC4CCC3CC4)CC2)c2ccncc21)C(C)C [Example 1, 2-(3-{1-[(3S)-2-Azabicyclo[2.2.2]octane-3-carbonyl]piperidin-4-yl}-1H-pyrrolo[2,3-c]pyridin-1-yl)-5-fluoro-N,N-di(propan-2-yl)benzamide]",,,"IC50 (MV4; 11 cells; Homo sapiens, MV4-11, 168 h): 260 nM; IC50 ([2]; hERG IC50, hERG current): 30000 nM; hERG/MV4; 11 [2]: 114; gap between concentration inhibiting 50% of MV4; 11 proliferation and concentration inhibiting 50% of hERG current [2]: more than 100 fold"
"CC(C)N(C)C(=O)c1cc(F)ccc1-n1cc(C2CCCN(C(=O)[C@H]3N[C@@H]4CC[C@H]3C4)CC2)c2ccncc21 (stereo partly drawn) [Example 10, 2-(3-{1-[(1R,3S,4S)-2-azabicyclo[2.2.1]heptane-3-carbonyl]azepan-4-yl}-1H-pyrrolo[2,3-c]pyridin-1-yl)-5-fluoro-N-methyl-N-(propan-2-yl)benzamide]",,,hERG/MV4; 11 [2]: 621; gap between concentration inhibiting 50% of MV4; 11 proliferation and concentration inhibiting 50% of hERG current [2]: more than 100 fold
"CC(C)N(C(=O)c1cc(F)ccc1-n1cc(C2=CCCN(C(=O)[C@H]3NC4CCC3CC4)CCC2)c2ccncc21)C(C)C [Example 14, 2-(3-{1-[(3S)-2-azabicyclo[2.2.2]octane-3-carbonyl]-1,2,3,4,7,8-hexahydroazocin-5-yl}-1H-pyrrolo[2,3-c]pyridin-1-yl)-5-fluoro-N,N-di(propan-2-yl)benzamide]",,,"IC50 (MV4; 11 cells; Homo sapiens, MV4-11, 168 h): 2200 nM; IC50 ([2]; hERG IC50, hERG current): 3200 nM; hERG/MV4; 11 [2]: 1.5"
"C=C1C[C@@H]2CC[C@H]1[C@@H](C(=O)N1CCCC(c3cn(-c4ccc(F)cc4C(=O)N(C)C(C)C)c4cnccc34)CCC1)N2 [Example 16, 5-fluoro-N-methyl-2-(3-{1-[(1S,3S,4R)-5-methylidene-2-azabicyclo[2.2.2]octane-3-carbonyl]azocan-5-yl}-1H-pyrrolo[2,3-c]pyridin-1-yl)-N-(propan-2-yl)benzamide]",240 nM,,
"C=C1C[C@@H]2CC[C@H]1[C@@H](C(=O)N1CCCC(c3cn(-c4ccc(F)cc4C(=O)N(C(C)C)C(C)C)c4cnccc34)CCC1)N2 [Example 18, 5-fluoro-2-(3-{1-[(1S,3S,4R)-5-methylidene-2-azabicyclo[2.2.2]octane-3-carbonyl]azocan-5-yl}-1H-pyrrolo[2,3-c]pyridin-1-yl)-N,N-di(propan-2-yl)benzamide]",730 nM,,
